From a melting point compilation (Tetko et al.; mined from patent text by program, amines drawn as free bases though some values may be those of a salt)

melting point [°C] | SMILES
124 to 126 | CC(O)(CC(=O)O)c1ccc(-c2ccc(Cl)c(Cl)c2)cc1 (stereo not given)
183 to 184 | COc1ccc(C(=O)Nc2ccccc2)cc1NC(=S)Nc1ccc([N+](=O)[O-])cc1
189 to 191 | COc1ccc(Cn2c(=O)c(=NNc3ccccc3)c(=O)n(CCC(C)C)c3ccccc32)cc1
167 to 177 | O=C(O)c1ccc(Br)cc1COc1ccc2c(c1)OCO2
176 to 180 | CC(=S)N[C@@H]1c2cc(C#N)ccc2OC(C)(C)[C@H]1O (relative stereo)
156 to 157 | C[C@@H](N)[C@](O)(Cn1cncn1)c1ccc(F)cc1F
237 to 239 | COc1cc(OCc2ccccn2)ccc1/C=C/c1cc(/C=C/c2ccc3cc[nH]c3c2)n[nH]1
57 to 58 | N#Cc1ccc(C2NCCS2)cc1 (stereo not given)
232 | Cc1ccc(C(=O)Nc2cc(C(F)(F)F)ccn2)cc1/C=C/n1cnc2c(NC3CC3)ncnc21
66 to 67 | C[Si](C)(C)C#Cc1ccc(C=O)cc1
78 to 82 | CCCCC1CCCCCc2c1oc(=O)c(C(c1ccccc1)C1CC1)c2O (stereo not given)
> 350 | CCOc1ccc(Nc2nc3nc[nH]c3c(=O)[nH]2)cn1
79 to 81 | COc1ccc2c(c1)NC(c1ccccc1)CO2 (stereo not given)
139 to 141 | CCc1oncc1C(=O)Nc1ccc([N+](=O)[O-])cc1
131 to 132 | O=c1oc(C(F)(F)F)nc2ccc(I)cc12
225 to 227 | CC12CCC3=C(CCc4cc(O)ccc43)C1CCC2=O (stereo not given)
149 to 150 | c1ccc(CN2CCN(c3nc4nccc(-c5cccnc5)n4n3)CC2)cc1
211 to 214 | COC(=O)NN=C(C)c1cc(Cl)ccc1NS(=O)(=O)C(F)(F)F
180 | Cc1ccc2c(c1)C=Cc1nc(C)oc1C2c1cn(Cc2cccc(C(=O)O)c2)c(=O)[nH]c1=S (stereo not given)
140 to 142 | CCCc1nn(C)c2c(OCCOc3ccc(CC(OCC)C(=O)O)cc3)nc(CC)nc12 (stereo not given)
148 to 150 | Nc1cc(CO)ccc1Sc1nccnc1Cl
74 to 76 | O=Cc1cccnc1Br
121 | O=S1(=O)c2ccccc2C(c2ccccc2)N1CCCl (stereo not given)
128 to 130 | COc1cc(NC(=O)N2CCOCN2)c(Cl)cc1Cl

melting point [°C] | SMILES
263 to 265 | COc1ccc(/C=C/S(=O)(=O)CS(=O)(=O)/C=C/c2ccc(OC)c([N+](=O)[O-])c2)cc1[N+](=O)[O-]
184 to 185 | COC(=O)c1ccc2c(=O)[nH]c(=O)n(CCCCBr)c2c1
147 to 148 | NS(=O)(=O)c1sc(Cl)cc1C(=O)CBr
206 to 209 | Cn1cc(S(C)=O)c(=O)c2scc(-c3ccccc3)c21 (stereo not given)
81 to 82 | OCCOc1ccc(Cn2ccnc2)cc1
192 to 194 | CC(=O)Nc1ccc(OCCCCBr)c([N+](=O)[O-])c1
134 | CCOC(=O)C1=C(N)OC(C)=C(C(=O)OC)C1c1cccc([N+](=O)[O-])c1 (stereo not given)
43.3 to 45.8 | C[C@H]1CCCC(C)(C)[C@@H]1[C@H](O)c1ccc(F)c(F)c1
161 to 164 | COC(=O)C1Cc2cc3c(cc2C(c2ccc([N+](=O)[O-])cc2)=NN1)OCO3 (stereo not given)
67 to 69 | COC(=O)C(=Cc1ccccc1Cl)c1ccccc1
72 to 73 | Cc1c(OCCCCCCC(=O)N(C)c2ccccc2)ccc([N+](=O)[O-])c1C=O
167 to 168 | Cc1c(C)c(N2CCN(C(=O)OC(C)(C)C)CC2)c(C)c2c1OC(C)(C)C2N1CCCCC1 (stereo not given)
120 to 122 | CCC(CO)Nc1nc(NCc2cccc(OC)c2O)c2ncn(C(C)C)c2n1 (racemic)
193 to 194 | Cc1ccnc(C(=O)c2[nH]c3cc(Cl)ccc3c2NC(=O)CN(C)C)c1
178 to 182 | COCCn1c(Oc2ccc(-n3c4ncccc4n4ccnc34)cc2)nc2cccnc21
88 to 90 | FC(F)(F)c1ccc2c(c1)C(Cl)Cc1c(Cl)cccc1S2 (stereo not given)
69 to 72 | O=C(CSc1cccs1)C12CC3CC(CC(C3)C1)C2
262 | Cn1cnc2c(=O)n(-c3ccccc3)c3ncccc3c21
159 to 160 | CSc1ccc(C2=C(c3ccccc3)C(=O)OC2)cc1F
195 to 197 | C=C(C(=O)NS(=O)(=O)c1cccc(C#N)c1)c1ccc(OCCOC)cc1Oc1ncc(C(F)(F)F)cc1Cl
72 | C=C(C)CC(NC=O)(C(=O)OCC)C(=O)OCC
74 to 75 | CCOC(=O)c1cc2cc(F)cnc2n1Cc1ccccc1
147 to 149 | Cc1cn2c(n1)C(=O)CCC2
> 250 | CN1C(=O)C(c2cccc(Br)c2)(C2CCN(C(=O)c3ccccc3)CC2)N=C1N (stereo not given)

melting point [°C] | SMILES
134 to 136 | CS(=O)(=O)CCNc1cc(C(c2cc(F)ccc2F)S(=O)(=O)c2ccc(Cl)cc2)c(Cl)cn1 (stereo not given)
180 | O=C(NOCCO)c1cc(Cl)c(F)c(F)c1Nc1ccc(I)cc1F
59 to 60 | COC(=O)CCCCC(NC(=O)c1ccccc1)C(C)=O (stereo not given)
257 to 258 | Cc1nc2c(Cl)c(NC(=O)Cc3ccc(Cl)cc3Cl)ccc2s1
146 to 150 | Nc1sc2c(c1C(=O)c1ccc(Cl)cc1)CCS2
116 to 118 | CC(=O)OCCc1ccccc1S(N)(=O)=O
79 to 82 | COc1ccc2c(C(C)C(=O)OCCNC(=O)c3cccnc3)cccc2c1 (single isomer, unassigned; (+))
108 to 109 | C=CCn1ccc(=O)[nH]c1=O
194 to 195 | O=C1c2ccccc2-c2c1c1ccccc1c(=O)n2CCCCCNS(=O)(=O)c1ccccc1
98 to 99 | COC(=O)c1ncn(C2CCCCO2)c1CC#N (stereo not given)
152 to 154 | CN(C(=O)CCS(C)=O)c1cnc(-c2cncc(F)c2)s1 (stereo not given)
231 | Cc1nc2scc(C)n2c(=O)c1CCN1CCC(c2noc3cc(F)ccc23)CC1
154 to 155 | Clc1ccc2c(c1)CCc1cccnc1C2=C1CCNCC1
215 to 216 | Cc1[nH]cnc1CN1CCc2c(c3cccc4c3n2CCCC4)C1=O
145 to 150 | COC(=O)c1ccccc1S(=O)(=O)NC(=O)Nc1nc(C)cc(COC(C)=O)n1
158 to 159 | CC(C)(C)OC(=O)N[C@@H](CCC(N)=O)C(=O)N1CCN(Cc2ccccc2)CC1
211 to 214 | N#Cc1ccc(-c2sc(N3C(=O)c4ccccc4C3=O)c(C(=O)c3ccc(Cl)cc3)c2CBr)cc1
200 | CCNC(=O)c1ccc(N2CCN(Cc3cc4c(c(OCC)c3)OC(C)C(=O)N4)CC2)c(C)c1 (stereo not given)
136 to 137 | Cc1ccc(S(=O)(=O)N(CCN(CC(=O)Cl)S(=O)(=O)c2ccc(C)cc2)CCN(CC(=O)Cl)S(=O)(=O)c2ccc(C)cc2)cc1
268 to 271 | Cc1[nH]cnc1CN1CCC(N)=CC1=O
146 to 147 | COC(=O)Cc1cccc(OC)c1OCCCc1cn(-c2ccc(C(=O)O)nn2)nc1C(C)C
282 to 285 | O=C(c1n[nH]c2c(=O)[nH]c3cc(Cl)ccc3c(=O)c12)N(O)Cc1ccccc1
198 to 199 | COc1cccc2c(C)c3n(c(=O)c12)CCCS3(=O)=O
176 to 178 | Cc1nc(N2CCN(CC3(C#N)C=CC=CC3)C2=O)sc1C(=O)NCc1ccccc1 (stereo not given)

melting point [°C] | SMILES
101 to 102 | O=c1c2c(cnn1CC=Cc1ccccc1)C(Cc1ccccc1)NCCS2 (stereo not given)
196 to 200 | CC(=O)Nc1c[nH]c(=S)n1C1CCc2ccccc2C1 (stereo not given)
162 to 165 | CC(C)(C)C(=O)Nc1cccc(-c2ccc(C3CCNC3=O)cc2F)n1 (stereo not given)
137 to 139 | O=C(NC1CCCCC1)OC1CCN(C(=O)Oc2ccc(Oc3ccccc3)cc2)CC1
165 to 166 | Cc1cccc(C)c1NC(=O)c1ccc(Cl)nc1
225 to 229 | NC(=O)c1sc2c(Cl)cccc2c1Cl
186 to 188 | Cc1cccc(NC(=O)Cn2c3c(c4cc(Cl)c(Cl)cc42)CCN(C(=O)OC(C)(C)C)CC3)c1C
104 to 106 | CCOC(=O)c1nccn1Cc1ccccc1N
241 to 245 | COc1ccc(C(=O)Nc2ccncc2)c2c3cc(Cl)ccc3n(Cc3ccc(F)cc3)c12
135 | COc1cc(-c2ccn(C)n2)cc2oc(=O)c(C)c(C)c12
135 to 137 | CCSc1ccc(C(=O)NCc2ccc3c(c2)C(=O)N(C2(C)CCC(=O)NC2=O)C3=O)cc1 (stereo not given)
182 to 183 | NC(=O)c1c(N)nn(-c2ccccc2)c1N
278 to 280 | Cc1ccc2oc(=O)c(-c3cc(O)c(O)c(C#N)c3)nc2c1
122 to 124 | COC(=O)[C@H](CCSC)NC(=O)c1ccc(/C=C(/Cn2ccnc2)c2nccs2)cc1-c1ccccc1
91 to 93 | CC(C)CN1C(=O)CC[C@H]1COC(c1ccccc1)(c1ccccc1)c1ccccc1
115 to 119 | NC(Cc1ccccc1)C(O)C(O)C(N)Cc1ccccc1 (stereo not given)
126 | Nc1nc(Nc2ccccc2)c2[nH]cnc2n1
163 to 165 | CC(=O)CN1C(=O)c2ccc3ccccc3c2S1(=O)=O
98 to 100 | CCC(=O)CC(=O)OCCC#N
149 to 150 | O=C(Nc1nnc(C(F)(F)F)o1)C(c1ccccc1)c1ccccc1
158 to 160 | CC(C)(C)[Si](C)(C)OCCCn1ccc2c3c(c(-c4ccccc4Cl)cc21)C(=O)NC3=O
> 285 | Cc1ccc(Nc2nc(-c3ccccc3)c(C(=O)c3sc(Nc4ccc(C)cc4)nc3-c3ccccc3)s2)cc1

SMILES | melting point [°C]
CNC1=Nc2ccc(Cl)cc2C(c2ccccc2Cl)=NC1 | 216 to 219
COCOCc1cc(-c2ccc(C(=O)O)cc2)cc(-c2ccc3c(c2)C(C)(C)CCC3(C)C)c1 | 88
CN(C)C1(c2ccccc2)CCC(CNC(=S)NCCc2c[nH]c3ccccc23)CC1 (stereo not given) | 92 to 95
CN1CCC(O)(c2ccc(F)cc2F)C1 (stereo not given) | 117 to 119
O=C(O)c1cc(CO[N+](=O)[O-])cc(CO[N+](=O)[O-])c1 | 39 to 41
CC(C)NC(=O)c1ccc(N2CCC(N3C(=O)OCc4ccccc43)CC2)c(C#N)c1 | 200
